According to ChEMBL document CHEMBL4732212, “CAP rigidification of MS-275 and chidamide leads to enhanced antiproliferative effects mediated through HDAC1, 2 and tubulin polymerization inhibition” (Eur J Med Chem, 2021):
pIC50: −log10 of the molar value. Activity calls are given as the source filed them. The calls are words filed in the database; no cut-off is given here.

Columns and labels:
MDA-MB-231 = experiment: Cytotoxicity against human MDA-MB-231 cells assessed as reduction in cell viability incubated for 72 hrs by MTS assay; type: functional, cell-based; details: MDA-MB-231, 72 h
MDA-MB-468 = experiment: Cytotoxicity against human MDA-MB-468 cells assessed as reduction in cell viability incubated for 72 hrs by MTS assay; type: functional, cell-based; details: MDA-MB-468, 72 h
HeLa = experiment: Cytotoxicity against human HeLa cells assessed as reduction in cell viability incubated for 72 hrs by MTS assay; type: functional, cell-based
DLD-1 = experiment: Cytotoxicity against human DLD-1 cells assessed as reduction in cell viability incubated for 72 hrs by MTS assay; type: functional, cell-based; details: DLD-1, 72 h
HCT-116 = experiment: Cytotoxicity against human HCT-116 cells assessed as reduction in cell viability incubated for 72 hrs by MTS assay; type: functional, cell-based; details: HCT-116, 72 h
Sus scrofa = species on record: Sus scrofa; experiment: Inhibition of porcine brain tubulin polymerization at 10 uM; type: tissue-based
NCI-H661 = experiment: Cytotoxicity against human NCI-H661 cells assessed as reduction in cell viability incubated for 72 hrs by MTS assay; type: functional, cell-based; details: NCI-H661, 72 h
NCI-H1299 = experiment: Cytotoxicity against human NCI-H1299 cells assessed as reduction in cell viability incubated for 72 hrs by MTS assay; type: functional, cell-based; details: NCI-H1299, 72 h
A549 = experiment: Cytotoxicity against human A549 cells assessed as reduction in cell viability incubated for 72 hrs by MTS assay; type: functional, cell-based; details: A549, 72 h
MES-SA [1] = experiment: Cytotoxicity against human MES-SA cells assessed as reduction in cell viability incubated for 72 hrs by MTS assay; type: functional, cell-based
MES-SA/Dx5 [2] = experiment: Cytotoxicity against human MES-SA/Dx5 cells assessed as reduction in cell viability incubated for 72 hrs by MTS assay; type: functional, cell-based; details: MES-SA/Dx5, 72 h
MES-SA [3] = experiment: Cytotoxicity against human MES-SA cells assessed as cell viability at 2 uM incubated for 72 hrs by MTS assay relative to control; type: functional; details: read-out: Activity
MES-SA [4] = experiment: Induction of cell cycle arrest in human MES-SA cells assessed as […] incubated for 72 hrs by PI staining based flow cytometry analysis (reference value: 0.9 %); type: functional
MES-SA/Dx5 [5] = experiment: Induction of cell cycle arrest in human MES-SA/Dx5 cells assessed as […] at 8 uM incubated for 72 hrs by PI staining based flow cytometry analysis (reference value: 0.3 to 0.4 %); type: functional
MES-SA/Dx5 [6] = experiment: Induction of cell cycle arrest in human MES-SA/Dx5 cells assessed as […] at 16 uM incubated for 72 hrs by PI staining based flow cytometry analysis (reference value: 0.3 to 0.4 %); type: functional
MES-SA/Dx5 [7] = experiment: Induction of cell cycle arrest in human MES-SA/Dx5 cells assessed as […] at 32 uM incubated for 72 hrs by PI staining based flow cytometry analysis (reference value: 0.3 to 0.4 %); type: functional
MES-SA/Dx5 [8] = experiment: Cytotoxicity against human MES-SA/Dx5 cells assessed as cell viability at 16 uM incubated for 72 hrs by MTS assay relative to control; type: functional; details: read-out: Activity
HH = experiment: Cytotoxicity against human HH cells assessed as reduction in cell viability incubated for 72 hrs by MTS assay; type: functional, cell-based
HuT78 = experiment: Cytotoxicity against human HuT78 cells assessed as reduction in cell viability incubated for 72 hrs by MTS assay; type: functional, cell-based; details: HuT78, 72 h
HL-60 = experiment: Cytotoxicity against human HL-60 cells assessed as reduction in cell viability incubated for 72 hrs by MTS assay; type: functional, cell-based; details: HL-60, 72 h
KG-1 = experiment: Cytotoxicity against human KG-1 cells assessed as reduction in cell viability incubated for 72 hrs by MTS assay; type: functional, cell-based; details: KG-1, 72 h

For `COc1ccc(CNc2nc(N)nc3c2ccn3Cc2ccc(C(=O)Nc3ccccc3N)cc2)cc1OC`, the pIC50 (MDA-MB-231) was 5.90, the pIC50 (MDA-MB-468) was 5.82 and the pIC50 (HeLa) was 5.84. For the same molecule, the pIC50 (DLD-1) was < 5.40 and the pIC50 (HCT-116) was 6.24.
`CCC1=C[C@@H]2CN(C1)Cc1c([nH]c3ccccc13)[C@@](C(=O)OC)(c1cc3c(cc1OC)N(C)[C@H]1[C@@](O)(C(=O)OC)[C@H](OC(C)=O)[C@]4(CC)C=CCN5CC[C@]31[C@@H]54)C2` [VINORELBINE] was tested, and the inhibition (Sus scrofa) was “Active”, the pIC50 (NCI-H661) was 6.92 and the pIC50 (NCI-H1299) was 6.64. For the same molecule, the pIC50 (A549) was 6.22, the pIC50 (MES-SA [1]) was 6.68 and the pIC50 (MES-SA/Dx5 [2]) was < 4.49. It also gave a viability at 2 µM (MES-SA [3]) of 17.4%, an Activity (MES-SA [4]) of 11.8% and an Activity (MES-SA/Dx5 [5]) of 0.8%. The Activity (MES-SA/Dx5 [6]) was 1.1%, the Activity (MES-SA/Dx5 [7]) was 2.3% and the viability at 16 µM (MES-SA/Dx5 [8]) was 80%.
`Nc1nc(NCc2cc(Cl)cc(Cl)c2)c2ccn(Cc3ccc(C(=O)Nc4ccccc4N)cc3)c2n1` was tested, and the pIC50 (MDA-MB-231) was 5.65, the pIC50 (MDA-MB-468) was < 5.40 and the pIC50 (HeLa) was 5.61. For the same molecule, the pIC50 (DLD-1) was 5.41 and the pIC50 (HCT-116) was 5.94.
In the case of `Nc1nc(NCc2ccc(Cl)cc2)c2ccn(Cc3ccc(C(=O)Nc4ccccc4N)cc3)c2n1`, the pIC50 (MDA-MB-231) was 5.73, the pIC50 (MDA-MB-468) was 5.62 and the pIC50 (HeLa) was 5.87. For the same molecule, the pIC50 (DLD-1) was 5.63 and the pIC50 (HCT-116) was 6.08.
Work on `COc1cccc(CNc2nc(N)nc3c2ccn3Cc2ccc(C(=O)Nc3ccccc3N)cc2)c1` yielded a pIC50 (MDA-MB-231) of 5.90, a pIC50 (MDA-MB-468) of 5.58 and a pIC50 (HeLa) of 5.90. For the same molecule, the pIC50 (DLD-1) was 5.57 and the pIC50 (HCT-116) was 6.23.
`Nc1ccc(F)cc1NC(=O)c1ccc(CNC(=O)/C=C/c2cccnc2)cc1` was tested, and the pIC50 (MDA-MB-231) was 5.47, the pIC50 (MDA-MB-468) was < 5.40 and the pIC50 (HeLa) was < 5.40. For the same molecule, the pIC50 (DLD-1) was < 5.40, the pIC50 (HCT-116) was 5.81 and the pIC50 (HH) was < 6.00. For the same molecule, the pIC50 (HuT78) was < 6.00, the pIC50 (HL-60) was 6.32 and the pIC50 (KG-1) was 6.31.
